Laboratory results as given in patent US20250099482A1, “TIP60 NEURO-EPIGENETIC MODULATORS” (Drexel University, priority 2023, published 2025).
“Also recorded” adds a separate entry of the source.

What was measured:
Tip60 = molecular target: T1, Tip60 (Homo sapiens, UniProt Q92993); test: In vitro histone acetylation activity assay (Tip60); type: biochemical; conditions: 20 μM compound, vs Tip60+DMSO
T1 construct: purchased Active Motif 81975
Experimental: HAT assays were performed according to manufacturer's instructions in HAT Assay Kit (Active Motif 56100). Briefly, 375 ng Tip60 protein (Active motif: 81975) was incubated with 50 μM Histone H4 peptide, 50 μM Acetyl-CoA and indicated drug concentrations for 30 minutes at room temperature. After stopping the reaction and developing free sulfhydryl groups, […] was recorded at excitation 360-390 nm and emission 460-490 nm using Glomax fluorescence microplate reader. Specific enzyme activity (pmol/min/μg) was calculated by 1. Subtracting background fluorescence from that of assay samples to obtain arbitrary fluorescence units (AFU); and (2) Dividing the difference by the incubation time to obtain AFU/minute. 3. Dividing the AFU/minute by the slope of standard curve in AFU/pmol to obtain the rate in pmol/minute. 4. Dividing pmol/min by the amount of enzyme used to obtain final readings in pmol/minute/μg.

[1] = test system: Drosophila Tip60 knockdown model; test: Larval line crossing / reaching the wall assay in Tip60-RNAi knockdown model; type: in vivo; conditions: for rescue of Tip60 knockdown induced locomotion deficits (line crossing in 30 seconds): 3rd instar Tip60-RNAi larvae, compound in fly food
[2] = test system: Drosophila Alzheimer's disease model (APP); test: Eclosion assay (lethality) in APP Alzheimer's disease model; type: in vivo; conditions: compound in fly food
Experimental: All fly lines were raised on standard yeast Drosophila medium (Applied Scientific Jazz Mix Drosophila Food, Thermo Fischer Scientific) at 25° C. with 12/12-h light/dark cycle. The pan-neuronal driver elav^C155-Gal4, transgenic Tip60-RNAi-mediated knock-down (UAS-Tip60 RNAi) and the transgenic UAS lines carrying human APP 695 isoform (UAS-APP) were obtained from Bloomington Drosophila Stock Center. For neural Tip60 knockdown and APP expression, the elav^C155-Gal4 driver line was crossed with UAS-Tip60RNAi or UAS-APP and the progeny was collected as Tip60 knockdown model (elav^C155-Gal4/UAS-Tip60 RNAi) or APP associated AD model (elav^C155-Gal4/UAS-APP). For wild-type control, the elav^C155-Gal4 driver line was crossed with itself. Model validation was performed by confirming reduced Tip60 mRNA levels in Tip60 RNAi model as compared to wildtype using real-time PCR.
Compounds were synthesized by Enamine, Princeton Molecular and ChemBridge. […]
The P10 and P13 compound's functional effectiveness in rescuing AD associated lethality that occurs as a culmination of later stage neurodgenerative progression was assessed using an eclosion assay (FIG. 9C). Briefly, larvae were reared on food either with compounds dissolved in DMSO or without compounds (DMSO vehicle) and the number of flies that eclosed from their pupal cases over a 7 day period were counted.

purified p300 HAT = purified p300 HAT (Homo sapiens, UniProt Q09472); test: In vitro histone acetylation activity assay (p300); type: biochemical; conditions: HAT assays, 20 μM
Chain of purified p300 HAT (Q09472 whole entry, species assumed): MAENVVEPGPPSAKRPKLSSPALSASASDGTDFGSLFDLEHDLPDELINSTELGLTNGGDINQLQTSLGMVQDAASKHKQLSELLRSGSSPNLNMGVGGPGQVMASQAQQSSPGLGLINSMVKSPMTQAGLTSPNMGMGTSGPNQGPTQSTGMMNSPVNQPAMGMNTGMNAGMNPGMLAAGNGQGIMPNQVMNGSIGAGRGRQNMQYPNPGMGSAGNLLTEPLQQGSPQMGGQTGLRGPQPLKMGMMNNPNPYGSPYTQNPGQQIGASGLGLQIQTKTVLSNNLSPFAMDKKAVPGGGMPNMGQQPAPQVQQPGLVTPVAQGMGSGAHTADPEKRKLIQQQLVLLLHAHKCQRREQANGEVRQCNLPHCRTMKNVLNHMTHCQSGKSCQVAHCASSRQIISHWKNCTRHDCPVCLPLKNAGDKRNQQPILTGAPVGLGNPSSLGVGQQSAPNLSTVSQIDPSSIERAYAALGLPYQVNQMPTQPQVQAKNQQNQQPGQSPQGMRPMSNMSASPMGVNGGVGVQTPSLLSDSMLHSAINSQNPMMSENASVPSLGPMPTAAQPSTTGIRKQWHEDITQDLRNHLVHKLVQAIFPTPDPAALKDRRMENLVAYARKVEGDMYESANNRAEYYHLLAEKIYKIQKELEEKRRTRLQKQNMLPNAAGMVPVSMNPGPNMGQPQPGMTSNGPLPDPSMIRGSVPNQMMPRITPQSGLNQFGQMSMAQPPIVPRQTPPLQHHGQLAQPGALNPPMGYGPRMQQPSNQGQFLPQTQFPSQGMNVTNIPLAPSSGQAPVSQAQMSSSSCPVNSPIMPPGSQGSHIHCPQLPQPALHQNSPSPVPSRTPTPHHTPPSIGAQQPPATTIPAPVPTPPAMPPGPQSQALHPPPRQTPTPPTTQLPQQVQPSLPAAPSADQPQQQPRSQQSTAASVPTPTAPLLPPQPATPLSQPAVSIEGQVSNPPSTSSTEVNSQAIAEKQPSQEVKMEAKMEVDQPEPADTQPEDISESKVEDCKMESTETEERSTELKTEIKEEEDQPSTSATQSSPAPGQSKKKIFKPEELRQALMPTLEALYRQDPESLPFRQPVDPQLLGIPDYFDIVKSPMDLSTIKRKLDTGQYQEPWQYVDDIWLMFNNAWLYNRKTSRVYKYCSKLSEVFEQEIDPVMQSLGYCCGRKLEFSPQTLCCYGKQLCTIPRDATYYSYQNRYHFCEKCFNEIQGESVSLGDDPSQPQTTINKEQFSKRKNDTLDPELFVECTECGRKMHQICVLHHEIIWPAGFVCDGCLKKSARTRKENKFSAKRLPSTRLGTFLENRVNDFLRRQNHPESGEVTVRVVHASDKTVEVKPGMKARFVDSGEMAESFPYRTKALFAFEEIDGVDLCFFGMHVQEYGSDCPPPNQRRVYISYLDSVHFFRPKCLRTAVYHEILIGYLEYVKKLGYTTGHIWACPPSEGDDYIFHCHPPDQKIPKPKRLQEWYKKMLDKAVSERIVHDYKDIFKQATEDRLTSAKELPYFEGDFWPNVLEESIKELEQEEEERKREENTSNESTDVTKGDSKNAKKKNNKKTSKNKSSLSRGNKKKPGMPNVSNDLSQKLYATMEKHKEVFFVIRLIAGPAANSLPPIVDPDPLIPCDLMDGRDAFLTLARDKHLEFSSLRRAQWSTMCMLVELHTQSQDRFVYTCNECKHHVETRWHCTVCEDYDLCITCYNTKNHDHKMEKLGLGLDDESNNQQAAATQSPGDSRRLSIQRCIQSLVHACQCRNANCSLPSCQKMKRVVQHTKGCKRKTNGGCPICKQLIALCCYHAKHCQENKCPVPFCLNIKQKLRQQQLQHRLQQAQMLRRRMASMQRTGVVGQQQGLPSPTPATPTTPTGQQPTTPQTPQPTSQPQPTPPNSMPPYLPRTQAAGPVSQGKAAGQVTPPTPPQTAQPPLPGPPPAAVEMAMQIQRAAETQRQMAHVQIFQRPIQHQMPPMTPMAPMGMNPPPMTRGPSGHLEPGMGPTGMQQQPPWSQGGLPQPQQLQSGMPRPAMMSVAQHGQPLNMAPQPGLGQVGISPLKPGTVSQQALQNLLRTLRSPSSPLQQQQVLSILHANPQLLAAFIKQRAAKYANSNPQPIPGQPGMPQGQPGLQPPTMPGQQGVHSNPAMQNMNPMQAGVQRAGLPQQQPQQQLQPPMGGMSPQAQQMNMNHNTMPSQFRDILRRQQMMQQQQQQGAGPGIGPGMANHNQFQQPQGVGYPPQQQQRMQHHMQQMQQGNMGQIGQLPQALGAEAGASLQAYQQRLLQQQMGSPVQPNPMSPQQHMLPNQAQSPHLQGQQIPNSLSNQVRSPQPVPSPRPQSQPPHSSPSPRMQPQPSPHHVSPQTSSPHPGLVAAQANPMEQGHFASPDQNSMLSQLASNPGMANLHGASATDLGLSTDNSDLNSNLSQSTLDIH

[3] = test system: Drosophila Alzheimer's disease model (APP); test: Larval line crossing assay in APP Alzheimer's disease model; type: in vivo; conditions: 3rd instar APP larvae, compound in fly food, range of concentrations

T1 sequence (Q92993 whole entry): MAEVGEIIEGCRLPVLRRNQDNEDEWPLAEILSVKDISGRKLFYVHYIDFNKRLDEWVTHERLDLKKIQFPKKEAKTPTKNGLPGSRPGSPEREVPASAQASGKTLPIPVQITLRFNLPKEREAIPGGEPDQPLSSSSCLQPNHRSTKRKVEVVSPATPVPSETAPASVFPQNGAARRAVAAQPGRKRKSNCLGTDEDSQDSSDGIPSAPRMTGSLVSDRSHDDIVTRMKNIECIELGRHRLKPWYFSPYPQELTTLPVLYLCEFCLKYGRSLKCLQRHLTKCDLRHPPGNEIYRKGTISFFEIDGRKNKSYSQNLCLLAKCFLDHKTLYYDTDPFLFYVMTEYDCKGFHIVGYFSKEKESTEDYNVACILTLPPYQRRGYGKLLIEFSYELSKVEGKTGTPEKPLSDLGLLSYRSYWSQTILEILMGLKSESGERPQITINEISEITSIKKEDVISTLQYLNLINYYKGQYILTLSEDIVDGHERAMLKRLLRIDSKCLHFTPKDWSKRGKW

specificity for Tip60 over p300 (purified p300 HAT)	SMILES	effect on Tip60's HAT activity (Histone H4 acetylation, fluorescence) (Tip60)	rescue of Tip60 knockdown induced locomotion deficits (line crossing in 30 seconds) [1]	rescue of AD associated lethality (flies eclosed over 7 day period) [2]	rescue of AD associated locomotion defects (line crossing, reaching wall) [3]	ability of larvae to cross plate and reach the wall ([1]; 1 μM drug concentration)	restoration of locomotor activity (line crossing) ([1]; 1 μM drug concentration)
highest specificity for Tip60 over p300	Cc1nc2c(cnn2C(C)C)cc1C(=O)NCc1ccc([C@H](C)O)c(C)n1 [Compound P10, (S)-N-((5-(1-hydroxyethyl)-6-methylpyridin-2-yl)methyl)-1-isopropyl-6-methyl-1H-pyrazolo[3,4-b]pyridine-5-carboxamide]	enhanced Tip60's HAT activity; also recorded: highest level of Tip60 HAT activation	rescue locomotor speed defect	significant rescue of lethality	consistent and robust rescue	–	–
highest specificity for Tip60 over p300	CC(=O)Nc1cccc(CNC(=O)c2cnc3ccccc3c2C(F)(F)F)c1 [Compound P13, N-(3-acetamidobenzyl)-4-(trifluoromethyl)quinoline-3-carboxamide]	enhanced Tip60's HAT activity; also recorded: highest level of Tip60 HAT activation	rescue locomotor speed defect	significant rescue of lethality; also recorded: more robust effects	consistent and robust rescue	improved the performance of larvae in reaching the wall	best performer in restoring locomotor activity to wild-type levels
